Test results published in patent US11154479B1, “Methods of removing color from color-treated hair” (L'Oreal, priority 2020, dated 2021).
Read-outs that look alike come from different tables or passages of the source.

How the values were obtained:
[1] = Removal of HC Blue 15 from dyed hair swatches by organic salt solutions (ΔE, CIE L*a*b*); settings: HC Blue 15 dyed hair; for ΔE: soaked 30 minutes at 40° C., shampooed once
Experimental: (§1) Unless otherwise indicated, hair swatches were all treated using the same protocol. Specifically, 2 g dyed hair swatches are soaked in 80 g treatment solution in water for 30 minutes at 40° C., then the treated hair swatches are then shampooed/washed once (rinsing step) and blow-dried for evaluation.
(§2) Unless otherwise indicated, color removal performance is measured using CIE L* a* b* coordinates. ΔE is used to describe the color difference and is defined by the following equation: ΔE*ab=√{square root over ((L*2−L*1)^2+(a*2−a*1)^2+(b*2−b*1)^2)} where, L1*, a1; b1 are measured on freshly dyed hair L2*, a2, b2 are measured on the dyed hair treated by color remover systems. The higher ΔE values, the more efficient the color removal.
Hair swatches dyed with HC Blue 15 were treated with the organic salts at varying concentrations using the protocol described above.

[2] = Removal of Basic Red 51 from dyed hair swatches by organic salt solutions (ΔE); settings: 10% organic salt in water; Basic Red 51 dyed hair; soaked 30 minutes at 40° C.; water control 5.3
Experimental: as §1, §2
Hair swatches dyed with Basic Red 51 were treated with BMIM octylsulfate and TBuMA Cl, each at 10% concentration using the protocol described above. Basic Red 51 contains a quaternary moiety and has the structure below.

[3] = 10% organic salt in water; hydroxyanthraquinoneaminopropyl methyl morpholinium methosulfate dyed hair; 30 minutes at 40° C.; water control 2.9
[4] = Octanol/water partition coefficient (Log Pow) of direct dyes; type: physicochemical; settings: octanol/water partition coefficient of the dye
From the text: Pow is the octanol/water partition coefficient, which can be defined as the ratio of the concentration of a solute, such as the direct dye in the present disclosure, in a water-saturated octanolic phase to its concentration in an octanol-saturated aqueous phase. The octanol/water partition coefficient is typically expressed in Logarithmic form.
There are several existing experimental methods by the Organisation for Economic Co-operation and Development (OECD) and Quantitative Structure-Property Relationship (QSPR) models available for Log Pow measurement or prediction. The experimental methods include: the ‘slow-stirring’ method (OECD Test No. 123), the high-performance liquid chromatography (HPLC) method (OECD Test No. 117), and shake flask methods (referred to in OECD Test No. 107).
Thus, partition coefficient of a dye may be calculated as follows: Log Pow=Log [(dye concentration in octanol)/(dye concentration in water)].
The Log Pow value of a direct dye can be positive, negative or neutral. The Log Pow values for some dyes follows in the below table.

| Log Pow [4] | Compound | ΔE ([1]; 1% organic salt in water) | ΔE ([1]; 5% organic salt in water) | ΔE ([1]; 10% organic salt in water) | Concentration of organic salt from which the ΔE value increased significantly [1] | ΔE [2] | ΔE [3] | ΔE ([1]; 25% organic salt in water) |
| --- | --- | --- | --- | --- | --- | --- | --- | --- |
|  | butyl-3-methylimidazolium octyl sulfate [BMIM octyl sulfate] | 1.3 | 18.4 | 32.2 | about 5% | 22.2 | 39.1 |  |
|  | CCCC[N+](C)(CCCC)CCCC.[Cl-] [TBuMA Cl, tributylmethyl ammonium chloride] |  |  |  |  | 23.1 |  | 32.8 |
| around 2.89 | COS(=O)(=O)[O-].C[N+]1(CCCNc2ccc(O)c3c2C(=O)c2ccccc2C3=O)CCOCC1 [Hydroxyanthraquinoneaminopropyl methyl morpholinium methosulfate] |  |  |  |  |  |  |  |
